According to publication PMC12040169 (PLOS Biology, 2025):

Experiment: in vitro
Settings: human, hela cells, % viability

In order of rising viability at 28.5 h, 10 µM:
1. CCOC(=O)c1ccccc1NC(=O)n1ccc2c(N3CCNCC3)cccc21 [CBK003731C]  50.8%
2. CC(C)Cn1c(=O)[nH]c2ncc(-c3cccc4cccnc34)nc21 [CBK064400]  60.5%
3. COc1ccnc2c1c(=O)n(Cc1ccc(Cl)cc1)c(=O)n2C [CBK287645]  66.9%
4. Cc1ccc(S(=O)(=O)Nc2cc(Sc3nc(C)cc(C)n3)c(O)c3ccccc23)cc1 [CBK263313]  79%
5. Cc1ccnc(Sc2nc3c(c(=O)[nH]c(=O)n3C)n2CCCc2ccccc2)n1 [CBK269353]  79.4%
6. c1ccc(CCN2CCN(CCC(c3ccccc3)c3ccccc3)CC2)cc1 [CBK126432]  85.4%
7. O=C(Nc1ccccc1[N+](=O)[O-])C1(c2ccccc2)CCN(S(=O)(=O)c2ccccc2)CC1 [CBK267796]  85.9%
8. O=C(Cc1ccsc1)N1CCN(C(=O)c2ccco2)CC1 [CBK144446]  86%
9. COc1ccc(NC(=O)CC2NC(=O)NC2=O)cc1 (centres unmarked) [CBK267279]  86.5%
10. Cc1ccc(NS(=O)(=O)c2ccc(OC(F)(F)F)cc2)c(CO)c1 [CBK043267]  86.8%
11. Cn1ncc(N2CCC(CNC(=O)COc3cccc(F)c3)C2)cc1=O (centres unmarked) [CBK307692]  87.1%
12. O=C(Cc1cc(F)cc(F)c1F)Nc1ccc2[nH]ccc2c1 [CBK159686]  87.4%
13. O=C(CSc1ccc(F)cc1)Nc1cc(Cl)ccc1O [CBK268685]  87.5%
14. Cc1nc(C2CCCN(C(=O)CCc3ccno3)C2)c2sccn12 (centres unmarked) [CBK285237]  87.5%
15. COc1ccccc1-c1nccnc1N1CCN(c2ccncc2)CC1 [CBK037081]  87.8%
16. CN(C)c1ccc(-c2ncnn2CC(F)(F)F)cn1 [CBK307215]  88%
17. CCS(=O)(=O)c1ccc2oc([C@H]3CCN(S(=O)(=O)c4ccccc4)C3)nc2c1 [CBK289382]  88.2%
18. CN(CC(=O)N(C)CC(F)(F)F)Cc1cccnc1 [CBK282075]  89.1%
19. CN(C)c1ncc(CNc2nc(O)c3c(n2)CCCC3)cn1 [CBK305460]  89.3%
20. CC(C)(C)c1cc(CCCOC(=O)CNC2CCCCC2)cc(C(C)(C)C)c1O [CBK261998]  89.4%
21. Cc1c(NS(=O)(=O)c2cc(C(=O)O)c(Cl)cc2Cl)c(=O)n(-c2ccccc2)n1C [CBK296123]  90.3%
22. COc1cc(C(=O)N2CCC3(CC2)NC(=O)c2cc(C)ccc2O3)cc(OC)c1C [CBK166273]  91%
23. NCCn1cc(-c2cccc(F)c2)c(C2CCOCC2)n1 [CBK281696]  91.1%
24. Cn1ccnc1C1(O)C2CCCC1CN(CC1CCCCC1)C2 (centres unmarked) [CBK285220]  91.5%
25. FC(F)(F)c1cc(/C=C/c2cccs2)n[nH]1 [CBK020924]  92.1%
26. COc1ccc(Cl)cc1-c1noc(Cn2nc(C)c(Cl)c2C)n1 [CBK269813]  92.1%
27. Cc1cc(CC(=O)NCc2c(-c3ccccc3)noc2C)on1 [CBK144090]  92.2%
28. N#Cc1ccc(COc2cccc(Cl)c2Cl)cc1 [CBK002611]  92.5%
29. O=C(Nc1ccc(N2CCNCC2)c2ccccc12)c1cccnc1 [CBK036336T]  92.9%
30. COc1cc(C(=O)Nc2ccc3[nH]ccc3c2)cc(OC)c1OC [CBK159696]  92.9%
31. Cc1c(NC(=O)c2ccc3c(c2)C(=O)N(Cc2ccco2)C3=O)cccc1C(=O)O [CBK268627]  92.9%
32. CSCc1nnc(SCCC(=O)N2CCN(c3ccc(F)cc3)CC2)o1 [CBK240463]  93.2%
33. Cc1noc2nc(-c3ccccc3F)cc(C(=O)N3CCCC3c3nnc4ccccn34)c12 (centres unmarked) [CBK296756]  93.2%
34. O=C(Nc1ccccc1)N(Cc1nc(-c2ccccc2)no1)C1CCCCC1 [CBK269830]  93.2%
35. COc1ccc(Cn2nc(N)c3ccccc32)cc1 [CBK093530]  93.3%
36. CN(C)/C=N/c1ncnc2c1nc(Br)n2C1CC(O)C(CO)O1 (centres unmarked) [CBK201277]  93.6%
37. CC(=O)Nc1nnc(SCC(=O)NCc2ccc3c(c2)OCO3)s1 [CBK287626]  94%
38. O=C(O)c1ccc(NC(=O)c2cn(-c3ccccc3)nc2-c2ccccc2)cc1 [CBK296120]  94.4%
39. O=C(Nc1cccnc1)c1ccc(CN2CCC(Cc3ccccc3)CC2)cc1 [CBK264095]  94.9%
40. Nc1ccc2c(-c3ccsc3)ccnc2n1 [CBK067637]  95.5%
41. CCNC(=O)Nc1ccc2c(-c3ccccc3)ccnc2n1 [CBK070668]  95.6%
42. O=C1/C(=C/c2ccc(OCc3cccc4ccccc34)cc2)SC(=S)N1Cc1cccnc1 [CBK264669]  95.6%
43. CC(C)NC(=O)Nc1ccccc1-c1ncn(C)n1 [CBK020922]  95.6%
44. C=CCN(c1ccc(C(=O)O)cc1)S(=O)(=O)c1ccc(/C=C/C(=O)O)cc1 [CBK263364]  95.8%
45. COc1ccccc1CNCC1CCN(C(=O)OC(C)(C)C)CC1 [CBK056710]  96.4%
46. O=C(Cc1ccsc1)NCCn1nc(-c2cccs2)ccc1=O [CBK283842]  96.5%
47. CC1=NN(c2ccccc2)C(=O)/C1=C\c1ccc(Cl)cc1 [CBK067772]  96.7%
48. CCn1cc(Br)c(C(=O)Nc2nccs2)n1 [CBK265890]  96.8%
49. Cc1ccccc1-c1ccccc1CC1(C(=O)N(C)C)CCN(C(=O)C2CC=CCC2)CC1 (centres unmarked) [CBK285733]  97.2%
50. CCCC/C=C/c1cncc(NC2CCC(N)CC2)n1 (centres unmarked) [CBK037827]  97.2%
51. CCNS(=O)(=O)c1ccc(NC(=O)c2cc(-c3ccccn3)nc3c(C)c(C)ccc23)cc1 [CBK267733]  97.3%
52. CC1(C(=O)O)CCCC2(C)c3cc(O)ccc3CCC12 (centres unmarked) [CBK027214]  97.4%
53. CN1CCN(C(=O)CN(Cc2ccccc2)S(C)(=O)=O)CC1 [CBK265745]  97.6%
54. CCOc1cc(/C=C2\SC(=N)NC2=O)ccc1OCc1ccc(Br)cc1 [CBK263813]  97.7%
55. Cn1ccnc1C1(O)CCN(C(=O)C2(c3ccccc3)CC2)CC1 [CBK283538]  98.4%
56. O=C(O)C1CCCCC1C(=O)NCCc1ccc(Cl)cc1 (centres unmarked) [CBK267972]  98.5%
57. O=S(=O)(c1ccc(C(F)(F)F)cc1Cl)N1CCCN(Cc2cccc3c2OCO3)CC1 [CBK063067]  98.6%
58. CC(N)C(=O)Nc1ccccc1-c1ccccc1 (centres unmarked) [CBK267700]  98.7%
59. CN1CCC(COC(=O)Nc2ccc3cc[nH]c3c2)CC1 [CBK200130]  98.7%
60. COc1ccc(C2CC(c3ccc(Cl)cc3)Nc3ncnn32)c(OC)c1 (centres unmarked) [CBK287848]  98.7%
61. O=C(CCSc1nc(-c2ccco2)cc(C(F)(F)F)n1)N1CCN(c2ccccn2)CC1 [CBK267626]  99%
62. O=C(N/N=C\c1ccc(-c2ccc(Cl)c(Cl)c2)o1)C1COc2cc3ccccc3cc2O1 (centres unmarked) [CBK262834]  99%
63. CC(C(=O)N1CCC(c2ccncc2)CC1)c1ccccc1 (centres unmarked) [CBK285484]  99.1%
64. c1ccc(-c2c(-c3ccccc3)n(Cc3ccco3)c3ncn4nc(-c5cccnc5)nc4c23)cc1 [CBK265374]  100%
65. CCCn1nc(C)c(-c2cncn2CCCN2CCCCC2)c1C [CBK281496]  100%
66. CC(=O)N1CCc2cc(Nc3ncnc4c3cnn4CCC#N)ccc21 [CBK305950]  101%
67. CC(=O)Nc1ccc(F)c(NC(=O)NCCC2CCCN2C)c1 (centres unmarked) [CBK304661]  101%
68. O=C(COc1ccc(S(=O)(=O)N2CCCCC2)cc1)Nc1ccc2c(c1)OCCO2 [CBK268205]  102%
69. Cc1n[nH]c(=O)c2nc(-c3ccc(=O)[nH]n3)[nH]c12 [CBK008745]  102%
70. Clc1ccc(CN2CCc3ccccc3C2)cc1Cl [CBK126395]  103%
71. Cn1c(Sc2ccc(C(=O)O)cc2[N+](=O)[O-])nnc1-c1ccccc1 [CBK265047]  103%
72. Cc1c(C(=O)O[C@H]2C[C@@H](c3ccc(F)cc3)N(C)C2=O)cnn1C [CBK283616]  103%
73. COCCCNC(=O)CN1CCCCC1Cn1nc(C)cc1C (centres unmarked) [CBK304009]  104%
74. CN(C)c1ccc(-c2nccnc2NCc2ccc(S(C)(=O)=O)cc2)cc1 [CBK036902]  104%
75. c1ccc(CNc2nccn3ccnc23)nc1 [CBK037526]  104%
76. COc1cnc(-c2cccc(C(F)(F)F)c2)c(NC(=O)Cc2ccccc2)n1 [CBK145308]  104%
77. O=C(Cn1c(C2CCOCC2)cc2cccnc21)N1CCCCCC1 [CBK284674]  105%
78. CS(=O)(=O)N1CCC(C(=O)NC(c2ccccc2)c2cnccn2)CC1 (centres unmarked) [CBK059901]  105%
79. CN(C)CC(C)(C)CNC(=O)C1(c2ccccc2)CCCC1 [CBK149532]  107%
80. O=C1NC2(Nc3ccccc31)C(=O)N(Cc1cccc3ccccc13)c1ccccc12 (centres unmarked) [CBK264954]  108%
81. CCN1CCN(CCNC(=O)Nc2ccccc2C)CC1 [CBK267842]  108%
82. CC1(C)CC(=NNC(=O)CCc2cc(C(C)(C)C)c(O)c(C(C)(C)C)c2)CC(C)(C)N1 [CBK261952]  108%
83. O=C(N/N=C/c1ccccc1Cl)c1ccc(C(=O)N/N=C/c2ccccc2Cl)cc1 [CBK261698]  108%
84. O=C(c1ccccc1Cl)N1CCN(c2ccc([N+](=O)[O-])c(NCc3cccnc3)c2)CC1 [CBK265866]  108%
85. O=C(CCC(=O)c1ccc2c(c1)Cc1ccccc1-2)Nc1ccc(C(=O)O)cc1 [CBK268673]  110%
86. O=C(NC1CC1)N1CCN(CCCOc2ccc(F)cc2)CC1 [CBK025077C]  111%
87. O=C(O)CCC(=O)Nc1cccc2ccccc12 [CBK260889]  112%
88. O=C(Nc1nccs1)c1cccc(Cl)c1Cl [CBK058011]  112%
89. CC1CCCCN1S(=O)(=O)c1ccc(NCCC(=O)c2ccc(Cl)cc2)cc1 (centres unmarked) [CBK268529]  113%
